# Results reported in publication PMC6095874, “Discovery of cationic nonribosomal peptides as Gram-negative antibiotics through global genome mining” (Nature Communications, 2018).
# Like-named read-outs stand apart in the source and are kept apart here. Where a SMILES comes first, the peptide text is derived from it. Bridges are numbered along the chain shown (N, C = ends). [ ]: non-standard residue; d: D form. The star is where a group is joined. Octanoyl(7-Me) = CC(C)CCCCCC(=O)*; dOrn = NCCC[C@@H](N)C(=O)O; X1 = CC[C@H](C)CCCCC(=O)*; Orn = NCCC[C@H](N)C(=O)O; Dab = NCC[C@H](N)C(=O)O
# Columns and labels:
# [1] = system: Escherichia coli ATCC 25922; experiment: microbe, parasite or virus in culture; assay type: cell-based; settings: for MIC, Ec: Supplementary Table 1, Ec = Escherichia coli ATCC 25922
# Method: (§1) MIC was determined by broth microdilution according to CLSI guidelines. The test medium for most species was Mueller–Hinton broth (MHB). Bacteria were grown overnight to early stationary phase and adjusted in MHB to 5.0 × 10^5 c.f.u. mL^−1 in the wells of 96-well microtiter plates (Falcon® 96-Well Flat-Bottom Microplate, Tissue Culture-Treated), mixed with varying concentrations of test compounds and incubated at 37 °C for 24 h. Cell growth was evaluated by measuring the optical density at 595 nm (Thermo Scientific Multiskan FC multiplate photometer) (Waltham, MA, USA), and the MIC was defined as the lowest compound concentration at which no bacterial growth was observed. MHBs containing 10% fetal bovine serum (Gibco), 21 mM MgCl, or 1.0 mg mL^−1 LPS (lipopolysaccharides from E. coli O55:B5, Sigma-Aldrich) was used to test their inhibitory effects.
# [2] = system: Colistin-resistant E. coli (E. coli ATCC 25922 carrying mcr-1); experiment: MIC by broth microdilution; assay type: cell-based, Escherichia coli; settings: MHB, 37 °C, 24 h
# Method: as §1
# Gram-negative bacteria = assay type: cell-based
# Method: as §1
# [3] = system: Pseudomonas aeruginosa PAO1; assay type: cell-based; settings: for MIC, Pa: Supplementary Table 1, Pa = Pseudomonas aeruginosa PAO1
# Method: as §1
# [4] = system: Staphylococcus aureus (MRSA); assay type: cell-based
# Method: as §1
# Acinetobacter baumannii = experiment: MIC by broth microdilution; assay type: cell-based; settings: Supplementary Table 1
# Method: as §1
# Bacillus subtilis 168 = experiment: MIC by broth microdilution; assay type: cell-based; settings: Supplementary Table 1; Bs = B. subtilis 168
# Method: as §1
# [5] = system: Enterobacter cloacae NRRL-B-413; experiment: MIC by broth microdilution; assay type: cell-based; settings: Supplementary Table 1; En = Enterobacter cloacae NRRL-B-413
# Method: as §1
# [6] = system: Klebsiella pneumoniae NRRL-B-408; experiment: MIC by broth microdilution; assay type: cell-based; settings: Supplementary Table 1; Kp = Klebsiella pneumoniae NRRL-B-408
# Method: as §1
# [7] = system: K. pneumoniae NRRL-B-3521; assay type: cell-based, Klebsiella pneumoniae
# Method: as §1
# E. cloacae NRRL-B-425 = assay type: cell-based, Enterobacter cloacae
# Method: as §1
# Candida albicans = assay type: cell-based
# Saccharomyces cerevisiae = assay type: cell-based
# E. coli TOP10 cells [8] = experiment: Time-kill assay; assay type: cell-based, Escherichia coli; settings: for cell viability in time-kill assay: ten times the MIC, early exponential cells, room temperature, c.f.u. counts, triplicate
# Method: (§2) An overnight culture of E. coli TOP10 cells was diluted 1:10,000 in MHB and incubated at 37 °C with agitation at 180 rpm for 2 h (early exponential). The bacteria were then challenged with brevicidine (20 μg mL^−1), laterocidine (20 μg mL^−1), or polymyxin B (10 μg mL^−1) at ten times the MIC at room temperature without shaking. An untreated sample of cells was used as a negative control. At intervals, 10 μL aliquots were removed, centrifuged at 10,000 × g for 1 min and resuspended in 1.0 mL of sterile PBS. Tenfold serially diluted suspensions were plated on MHB agar plates and incubated at 37 °C overnight. Colonies were counted and the number of c.f.u. per mL was calculated. For analysis of lysis, 300 μL of culture (OD600 = 1.0) were treated with antibiotics at ten times the MIC for 24 h. Experiments were performed in triplicate.
# E. coli TOP10 cells [9] = experiment: Bacterial growth kinetics; assay type: cell-based, Escherichia coli; settings: OD600 of cells exposed to antibiotics (Fig. 4: two times the MIC)
# Method: A single fresh colony of E. coli TOP10 cells was inoculated into MHB (5 mL) and grown with shaking at 225 rpm overnight. The bacteria were diluted to 1 × 10^5 c.f.u. mL^−1 in fresh MHB, grown […] to early log-phase (OD600 = 0.15) and treated with the antibiotics of interest in the wells of a 96-well plate. Final antibiotic concentrations varied from one to eight times the MIC. The plate was then incubated at 30 °C overnight, with OD600 measurements taken every 30 s.
# E. coli = experiment: Lysis assay; assay type: cell-based, Escherichia coli; settings: ten times the MIC, culture OD600 = 1.0, 24 h
# Method: as §2
# E. coli ATCC 25922 [10] = experiment: Resistance acquisition during serial passaging; assay type: cell-based, Escherichia coli; settings: subinhibitory concentrations, 30-day period, MHB, 37 °C, quadruplicate
# Method: E. coli ATCC 25922 was inoculated into MHB overnight at 37 °C with continuous shaking. Cells were diluted 10,000 times in MHB to about 1 × 10^6 c.f.u. mL^−1. Ten µL aliquots were drawn to a 96-well plate containing 90 µL of serially diluted brevicidine, laterocidine, and ciprofloxacin, at final concentrations of 0.5×, 1×, 1.5×, 2×, and 4× MIC. […] Plates with bacteria were incubated at 37 °C without shaking. […] This process was repeated for 30 days, and the final MIC was confirmed by the same antibacterial assay as the one described above. The experiment was performed in quadruplicate, and on each day, the sample that developed the highest resistance was measured to plot the curve. For single-step resistance, E. coli ATCC 25922 cells at 10^8 c.f.u. were plated onto Mueller–Hinton agar containing 4× MIC of brevicidine.
# E. coli ATCC 25922 [11] = experiment: Neutropenic mouse thigh infection model; assay type: in vivo; settings: laterocidine 15 mg kg^−1 twice s.c., five mice, after 26 h, Mann–Whitney P < 0.01
# Method: Given the low risk of resistance and the attractive mode of action of 1–2, an animal efficacy study was then performed in a mouse thigh model. Mice were intramuscularly infected with 1.50 × 10^6 c.f.u. of E. coli ATCC 25922. Two hours post infection, brevicidine (30 mg kg^−1) or laterocidine (15 mg kg^−1) was subcutaneously injected at two doses. […] In particular, compound 1 was highly efficacious in mice infected with E. coli and caused a 5 log10 reduction in c.f.u. in the thigh compared to the vehicle control after 24 h (Fig. 4f).
# In vivo activities of brevicidine and laterocidine were tested using the mouse thigh infection model. Animal studies were performed by Pharmacology Discovery Services Taiwan Ltd. in general accordance with standard guidelines on animal welfare[38] in an AAALAC-accredited facility. The protocol was reviewed and approved by the Institutional Animal Care and Use Committee. Groups of five female-specific pathogen-free ICR (CD-1) mice weighing 22 ± 2 g (~5 weeks of age) were used. Animals were immunosuppressed with two intraperitoneal injections of cyclophosphamide, the first at 150 mg kg^−1 4 days before infection (day −4) and the second at 100 mg kg^−1 1 day before infection (day −1). On day 0, animals were inoculated intramuscularly (0.1 mL per thigh) in the right thigh with an E. coli ATCC 25922 suspension. Vehicle (10% DMSO, 1% Tween 80, 0.9% NaCl) and antibiotics were then subcutaneously injected 2 and 8 h later. Due to the limited availability of compounds 1–2, only one concentration of 1 (30 mg kg^−1) or 2 (15 mg kg^−1) was used in the present study. Precisely 26 h after inoculation, animals were euthanized by CO2 asphyxiation before their right thigh muscles were harvested. The removed muscles were homogenized in 5 mL of PBS, pH 7.4, with a Polytron homogenizer. Homogenates in the amount of 0.1 mL were used for serial tenfold dilutions and plated onto a nutrient agar medium for colony count (in c.f.u. g^−1) determination. No randomization or blinding was necessary for the animal infection models, and no samples were excluded.
# rabbit erythrocytes = settings: concentrations up to 128 μg mL^−1, 2% (v/v) rabbit erythrocytes in PBS, 1 h, 37 °C, absorbance 570 nm, vs 10% Triton X-100
# Method: Hemolytic activity was determined with red blood cells freshly isolated from healthy rabbits. […] The cells were incubated for 1 h at 37 °C and centrifuged for 5 min at 10,000 × g. The supernatant was transferred to a 96-well plate and the absorbance was measured at a wavelength of 570 nm with a Thermo Scientific Multiskan FC multiplate photometer. The absorbance relative to the positive control, which was treated with 10% Triton X-100, was defined as the percentage of hemolysis.
# Human HeLa cells = settings: concentrations up to 128 μg mL^−1, 48 h, 37 °C, MTT, absorbance 570 nm
# Method: Human HeLa cells were used in the assay. Ninety μL of 1 × 10^5 mL^−1 cells were placed into the wells of 96-microwell plates. After 12 h, 10 μL of a medium containing test compounds at various concentrations were added to the cells which were then incubated at 37 °C for 48 h. Afterward, the supernatant was removed and 20 μL of MTT (3-(4,5-Dimethylthiazol-2-yl)-2,5-Diphenyltetrazolium Bromide) (2.5 mg mL^−1) in PBS were added to each well. After incubation at 37 °C for 3 h, 80 μL of dimethyl sulfoxide (DMSO) were added to each well and incubated for an additional 15 min. The absorbance was then measured at 570 nm with a Thermo Scientific Multiskan FC multiplate photometer.
# [12] = Peptide binding to LPS by isothermal titration calorimetry; parameters: species or system Escherichia coli; settings: 37 °C, 20 mM HEPES pH 7.0
# Method: Microcalorimetric experiments of peptide binding to LPS were performed on an MCS isothermal titration calorimeter (Microcal, Northampton, MA) at 37 °C. LPS was prepared as a 50 µM aqueous suspension in 20 mM HEPES buffer (pH 7.0) by suspension, sonication, and temperature cycling between 5 and 70 °C. This suspension was stored at 4 °C overnight prior to use. Aliquots of 100 µM peptide solutions (brevicidine and polymyxin B) were prepared in the same buffer and all solutions were degassed prior to use by stirring under vacuum for 5 min at 37 °C. After thermal equilibration, 5 µL aliquots of the peptide solution were added every 3 min into the lipid-containing cell at 37 °C with constant stirring. The change in heat during the titration steps was registered in real time and raw data were processed using the Origin® 7 software provided with the instrument. In control experiments, the corresponding peptide solution (or LPS solution) was injected into the buffer without LPS (or without peptide).
# [13] = broth microdilution, MHB, 37 °C, 24 h
smiles,measurement,setting,value
"CC[C@H](C)[C@@H]1NC(=O)[C@@H](NC(=O)[C@H](Cc2c[nH]c3ccccc23)NC(=O)[C@@H](CCCN)NC(=O)CNC(=O)[C@H](CCCN)NC(=O)[C@@H](CCCN)NC(=O)[C@@H](Cc2c[nH]c3ccccc23)NC(=O)[C@@H](Cc2ccc(O)cc2)NC(=O)[C@@H](CO)NC(=O)CCCCCC(C)C)[C@@H](C)OC(=O)CNC(=O)CNC(=O)[C@H](CC(N)=O)NC1=O [Compound 2, laterocidine] ({Octanoyl(7-Me)}-[dS][dY][dW][dOrn][Orn]G[dOrn]WTINGG; ester 9-C)","MIC, Ec",[1],2 mg/L
same,MIC,[2],2 mg/L
same,MIC values against Gram-negative bacteria,Gram-negative bacteria; 24 h,0.66 to 10.5 µM
same,MIC values against Gram-negative bacteria,Gram-negative bacteria; range over Gram-negative strains incl. P. aeruginosa and colistin-resistant E. coli,1 to 16 mg/L
same,"MIC, Pa",[3],2 mg/L
same,MIC,[4]; 24 h,>64 mg/L
same,"MIC, Ab",Acinetobacter baumannii,4 mg/L
same,"MIC, Bs",Bacillus subtilis 168,32 mg/L
same,"MIC, En",[5],2 mg/L
same,"MIC, Kp",[6],4 mg/L
same,MIC,"[7]; NRRL-B-3521, 24 h",4 mg/L
same,MIC,"E. cloacae NRRL-B-425; NRRL-B-425, 24 h",2 mg/L
same,MIC,Candida albicans; 24 h,>64 mg/L
same,MIC,Saccharomyces cerevisiae; 24 h,>64 mg/L
same,bactericidal action against E. coli,"E. coli TOP10 cells [8]; as revealed by growth kinetics, time-kill assay and lysis assay",bactericidal
same,cell viability in time-kill assay,E. coli TOP10 cells [8],significant reduction after 30 min
same,growth kinetics of E. coli cells exposed to compound,E. coli TOP10 cells [9],grew at a reduced rate for 30 min
same,lysis of E. coli cells,E. coli,completely lysed
same,resistance development during serial passaging,E. coli ATCC 25922 [10],did not develop resistance
same,viable bacteria in thigh,E. coli ATCC 25922 [11],reduced number of viable bacteria
same,lysis of erythrocytes (hemolysis),rabbit erythrocytes,neither caused the lysis of erythrocytes
same,toxicity against the human cell line HeLa,Human HeLa cells,nor showed significant toxicity
C[C@H]1COc2c(N3CCN(C)CC3)c(F)cc3c(=O)c(C(=O)O)cn1c23 [Levofloxacin],MIC,"[1]; Escherichia coli, ATCC25922, positive control of the mouse thigh model infected with E. coli ATCC 25922, strain for MIC not stated explicitly, read-out: MIC",0.032 mg/L
"CC[C@H](C)CCCCC(=O)N[C@@H](CCN)C(=O)N[C@H](C(=O)N[C@@H](CCN)C(=O)N[C@H]1CCNC(=O)[C@H]([C@@H](C)O)NC(=O)[C@H](CCN)NC(=O)[C@H](CCN)NC(=O)[C@H](CC(C)C)NC(=O)[C@@H](Cc2ccccc2)NC(=O)[C@H](CCN)NC1=O)[C@@H](C)O [Polymyxin B, reference compound] (X1-[Dab]T[Dab][Dab][Dab][dF]L[Dab][Dab]T; lactam 4-C (inferred); N-terminus assumed)","MIC, Ec",[1],1 mg/L
same,MIC,[2],16 mg/L
same,"MIC, Pa",[3],1 mg/L
same,"MIC, MRSA","[4]; Supplementary Table 1, MRSA = Methicillin-resistant Staphylococcus aureus ATCC 43300",32 mg/L
same,"MIC, Ab",Acinetobacter baumannii,4 mg/L
same,"MIC, Bs",Bacillus subtilis 168,4 mg/L
same,"MIC, En",[5],8 mg/L
same,"MIC, Kp",[6],16 mg/L
same,MIC,[7]; [13],2 mg/L
same,MIC,E. cloacae NRRL-B-425; [13],64 mg/L
same,MIC,Candida albicans; broth microdilution,>64 mg/L
same,MIC,Saccharomyces cerevisiae; broth microdilution,>64 mg/L
same,time to kill all cells in time-kill assay,E. coli TOP10 cells [8]; ten times the MIC (polymyxin B 10 μg mL^−1),≤ 30 min
same,cell viability in time-kill assay,E. coli TOP10 cells [8],significantly reducing the viable cell population after 5 min
same,binding to LPS (ITC),[12],strong binding to LPS
"O=C(O)c1cn(C2CC2)c2cc(N3CCNCC3)c(F)cc2c1=O [ciprofloxacin, reference compound]",resistance development during serial passaging,E. coli ATCC 25922 [10],developed resistance
"CC[C@H](C)CCCCC(=O)N[C@@H](CCN)C(=O)N[C@H](C(=O)N[C@@H](CCN)C(=O)N[C@H]1CCNC(=O)[C@H]([C@@H](C)O)NC(=O)[C@H](CCN)NC(=O)[C@H](CCN)NC(=O)[C@H](CC(C)C)NC(=O)[C@@H](CC(C)C)NC(=O)[C@H](CCN)NC1=O)[C@@H](C)O [Colistin, reference compound] (X1-[Dab]T[Dab][Dab][Dab][dL]L[Dab][Dab]T; lactam 4-C (inferred); N-terminus assumed)",MIC,"[1]; broth microdilution (CLSI), MHB, 5.0 × 10^5 c.f.u. mL^−1, 37 °C, 24 h, OD 595 nm",2 mg/L
same,MIC,[2],16 mg/L
same,MIC,[3]; [13],1 mg/L
